Results: patent US9073926B2, “Heterocyclic compounds containing a pyrrolopyridine or benzimidazole core” (Boehringer Ingelheim International GmbH, priority 2009, dated 2015)

target: Human RSK2 (Homo sapiens (Human), UniProt P51812); assay: Human RSK2 Assay (Kinase Glo Plus, residual ATP); format: biochemical; conditions: 0.75 nM His-RSK2, 0.75 μM ATP, 1.0 μM S6 Kinase/RSK Substrate Peptide 1
Method: Experimental Method A: Human RSK2 Assay
Compounds are assessed for their ability to inhibit the phosphorylation of a substrate peptide by RSK2.
Human RSK2 protein, purchased from Invitrogen, is used to measure kinase activity utilizing Kinase Glo Plus (Promega) a homogeneous assay technology, which uses a luciferin-luciferase based ATP detection reagent to quantify residual ATP. The assay is performed using 0.75 nM His-RSK2, 0.75 μM ATP and 1.0 μM S6 Kinase/RSK Substrate Peptide 1 (Upstate, catalog #12-124), in assay buffer consisting of 25 mM HEPES, pH 7.5, 10 mM MgCl2, 5 mM MnCl2, 50 mM KCl, 0.2% BSA, 0.01% CHAPS, 100 μM Na3VO4, 0.5 mM DTT, and 1% DMSO. Solutions of test compounds at various concentrations are prepared by 1:3 fold serial dilution of a 1 mM solution of compound in DMSO. The DMSO solutions are further diluted with assay buffer to a final concentration of DMSO of 5%.
The assay is performed in a 384 well, white, non-binding plate (Corning, catalogue #3574). Solutions of test compounds (10 μL) are transferred to a dry assay plate, followed by addition of 20 μL kinase and 20 μL ATP+Substrate Peptide 1 described above. The kinase reaction mixture is incubated for 90 minutes at 28° C. followed by addition of 30 μL of ATP detection reagent for 15 minutes at room temperature. The relative light unit (RLU) signal is measured on a LJL Analyst (Molecular Devices) in luminescence mode using 384 aperture. The RLU signals were converted to percent of control (POC) values using the formula: POC=100*(BCTRL−Signal)/(BCTRL−PCTRL), where Signal is the test well RLU signal, BCTRL is the average of background (negative control), which consists of ATP+peptide and compound buffer, well signals on the plate, and PCTRL is the average of positive control, which consists of kinase, ATP+peptide, and compound buffer, well signals on the plate. For concentration-responsive compounds, POC as a function of test compound concentration are fitted to a 4-parameter logistic equation of the form: Y=A+(B−A)/[1+(x/C)^D], where A, B, C, and D are fitted parameters (parameter B is fixed at zero POC), and x and y are the independent and dependent variables, respectively. The IC50 (50% inhibitory concentration) is determined as the inflection point parameter, C. Experimental Method B: Human RSK2 Trans-Reporter Assay

Human RSK2, sequence (P51812 whole entry): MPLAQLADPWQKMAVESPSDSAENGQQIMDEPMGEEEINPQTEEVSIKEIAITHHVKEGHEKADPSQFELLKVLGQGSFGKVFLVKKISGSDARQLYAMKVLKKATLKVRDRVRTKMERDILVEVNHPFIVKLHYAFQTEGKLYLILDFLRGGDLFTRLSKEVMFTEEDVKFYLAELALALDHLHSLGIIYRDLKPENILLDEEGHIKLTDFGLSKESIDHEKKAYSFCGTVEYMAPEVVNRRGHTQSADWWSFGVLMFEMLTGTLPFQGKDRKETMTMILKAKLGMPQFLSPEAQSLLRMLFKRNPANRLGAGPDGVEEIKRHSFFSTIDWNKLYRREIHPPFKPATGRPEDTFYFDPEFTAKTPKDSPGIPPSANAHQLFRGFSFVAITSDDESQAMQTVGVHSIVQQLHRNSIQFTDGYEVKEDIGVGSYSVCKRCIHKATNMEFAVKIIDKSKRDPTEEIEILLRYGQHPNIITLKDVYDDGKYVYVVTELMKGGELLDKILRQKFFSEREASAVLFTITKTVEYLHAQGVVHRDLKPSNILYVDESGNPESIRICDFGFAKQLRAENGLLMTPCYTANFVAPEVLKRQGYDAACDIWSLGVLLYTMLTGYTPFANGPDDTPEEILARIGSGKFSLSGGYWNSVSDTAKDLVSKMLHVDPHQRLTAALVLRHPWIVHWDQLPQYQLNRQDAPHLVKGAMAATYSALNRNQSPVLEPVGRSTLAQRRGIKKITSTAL

IC50 [nM]	Compound
4000	Cn1cc(NC(=O)c2ccc3nc4n(c3c2)C(C)(C)CCNC4=O)cn1 [Example 14, 5,5-dimethyl-N-(1-methyl-1H-pyrazol-4-yl)-1-oxo-2,3,4,5-tetrahydro-1H-[1,4]diazepino[1,2-a]benzimidazole-8-carboxamide]
45	CCn1c(NC(=O)c2ccc3nc4n(c3c2)CCCNC4=O)nc2ccc(Cl)nc21 [Example 15, N-(5-chloro-3-ethyl-3H-imidazo[4,5-b]pyridin-2-yl)-1-oxo-2,3,4,5-tetrahydro-1H-[1,4]diazepino[1,2-a]benzimidazole-8-carboxamide]
92	CN(C)CCCn1c(NC(=O)c2ccc3nc4n(c3c2)CCCNC4=O)nc2ccccc21 [Example 16, N-{1-[3-(dimethylamino)propyl]-1H-benzimidazol-2-yl}-1-oxo-2,3,4,5-tetrahydro-1H-[1,4]diazepino[1,2-a]benzimidazole-8-carboxamide]
23	CCn1c(NC(=O)c2ccc3nc4n(c3c2)CCCNC4=O)nc2cccnc21 [Example 17, N-(3-ethyl-3H-imidazol[4,5-b]pyridin-2-yl)-1-oxo-2,3,4,5-tetrahydro-1H-[1,4]diazepino[1,2-a]benzimidazole-8-carboxamide]
4.7	CC(C)n1c(NC(=O)c2ccc3nc4n(c3c2)C(C)(C)CCNC4=O)nc2ccccc21 [Example 18, 5,5-dimethyl-1-oxo-N-[1-(propan-2-yl)-1H-benzimidazol-2-yl]-2,3,4,5-tetrahydro-1H-[1,4]diazepino[1,2-a]benzimidazole-8-carboxamide]
290	O=C(Nc1cc(-c2ccccc2)no1)c1ccc2nc3n(c2c1)CCCNC3=O [Example 19, 1-oxo-N-(3-phenyl-1,2-oxazol-5-yl)-2,3,4,5-tetrahydro-1H-[1,4]diazepino[1,2-a]benzimidazole-8-carboxamide]
1550	Cc1cc(NC(=O)c2ccc3nc4n(c3c2)CCCNC4=O)no1 [Example 20, N-(5-methyl-1,2-oxazol-3-yl)-1-oxo-2,3,4,5-tetrahydro-1H-[1,4]diazepino[1,2-a]benzimidazole-8-carboxamide]
2000	CC(C)(C)c1cc(NC(=O)c2ccc3nc4n(c3c2)CCCNC4=O)no1 [Example 21, N-(5-tert-butyl-1,2-oxazol-3-yl)-1-oxo-2,3,4,5-tetrahydro-1H-[1,4]diazepino[1,2-a]benzimidazole-8-carboxamide]
1700	O=C(Nc1cccc(-c2c[nH]cn2)c1)c1ccc2nc3n(c2c1)CCCNC3=O [Example 22, N-[3-(1H-imidazol-4-yl)phenyl]-1-oxo-2,3,4,5-tetrahydro-1H-[1,4]diazepino[1,2-a]benzimidazole-8-carboxamide]
9.2	O=C(Nc1cnc2ccccc2c1)c1ccc2cc3n(c2n1)CCCNC3=O [Example 23, 6-oxo-N-(quinolin-3-yl)-7,8,9,10-tetrahydro-6H-pyrido[3′,2′:4,5]pyrrolo[1,2-a][1,4]diazepine-2-carboxamide]
56	Cc1nc(-c2cccc(NC(=O)c3ccc4cc5n(c4n3)CCCNC5=O)c2)cs1 [Example 24, N-[3-(2-methyl-1,3-triazol-4-yl)phenyl]-6-oxo-7,8,9,10-tetrahydro-6H-pyrido[3′,2′:4,5]pyrrolo[1,2-a][1,4]diazepine-2-carboxamide]
20	O=C(Nc1cccc(F)c1)c1ccc2cc3n(c2n1)CCCNC3=O [Example 25, N-(3-fluorophenyl)-6-oxo-7,8,9,10-tetrahydro-6H-pyrido[3′,2′:4,5]pyrrolo[1,2-a][1,4]diazepine-2-carboxamide]
2.3	NC(=O)c1ccccc1NC(=O)c1ccc2cc3n(c2n1)CCCNC3=O [Example 26, N-(2-carbamoylphenyl)-6-oxo-7,8,9,10-tetrahydro-6H-pyrido[3′,2′:4,5]pyrrolo[1,2-a][1,4]diazepine-2-carboxamide]
37	O=C(Nc1cccnc1)c1ccc2cc3n(c2n1)CCCNC3=O [Example 27, 6-oxo-N-(pyridin-3-yl)-7,8,9,10-tetrahydro-6H-pyrido[3′,2′:4,5]pyrrolo[1,2-a][1,4]diazepine-2-carboxamide]
90	CCOC(=O)c1nc(NC(=O)c2ccc3cc4n(c3n2)CCCNC4=O)cn1C [Example 28, ethyl 1-methyl-4-{[(6-oxo-7,8,9,10-tetrahydro-6H-pyrido[3′,2′:4,5]pyrrolo[1,2-a][1,4]diazepin-2-yl)carbonyl]amino}-1H-imidazole-2-carboxylate]
2.1	CC(C)n1ncc2cc(NC(=O)c3ccc4cc5n(c4n3)C(C)CCNC5=O)cnc21 (centres unmarked) [Example 29, 10-methyl-6-oxo-N-[1-(propan-2-yl)-1H-pyrazolo[3,4-b]pyridin-5-yl]-7,8,9,10-tetrahydro-6H-pyrido[3′,2′:4,5]pyrrolo[1,2-a][1,4]diazepine-2-carboxamide]
25	CC(C)n1ncc2cc(NC(=O)c3ccc4cc5n(c4n3)CCCNC5=O)cnc21 [Example 30, 6-oxo-N-[1-(propan-2-yl)-1H-pyrazolo[3,4-b]pyridin-5-y]-7,8,9,10-tetrahydro-6H-pyrido[3′,2′:4,5]pyrrolo[1,2-a][1,4]diazepine-2-carboxamide]
105	CC(C)n1ncc2cc(NC(=O)c3ccc4cc5n(c4n3)CC(C)(C)CNC5=O)cnc21 [Example 31, 9,9-dimethyl-6-oxo-N-[1-(propan-2-yl)-1H-pyrazolo[3,4-b]pyridin-5-yl]-7,8,9,10-tetrahydro-6H-pyrido[3′,2′:4,5]pyrrolo[1,2-a][1,4]diazepine-2-carboxamide]
2.3	CC1CCNC(=O)c2cc3ccc(C(=O)Nc4cnc5c(cnn5C5CCOCC5)c4)nc3n21 (centres unmarked) [Example 32, 10-methyl-6-oxo-N-[1-(tetrahydro-2H-pyran-4-yl)-1H-pyrazolo[3,4-b]pyridin-5-yl]-7,8,9,10-tetrahydro-6H-pyrido[3′,2′:4,5]pyrrolo[1,2-a][1,4]diazepine-2-carboxamide]
20	O=C(Nc1cnc2c(cnn2C2CCOCC2)c1)c1ccc2cc3n(c2n1)CCCNC3=O [Example 33, 6-oxo-N-[1-(tetrahydro-2H-pyran-4-yl)-1H-pyrazolo[3,4-b]pyridin-5-yl]-7,8,9,10-tetrahydro-6H-pyrido[3′,2′:4,5]pyrrolo[1,2-a][1,4]diazepine-2-carboxamide]
62	CC1(C)CNC(=O)c2cc3ccc(C(=O)Nc4cnc5c(cnn5C5CCOCC5)c4)nc3n2C1 [Example 34, 9,9-dimethyl-6-oxo-N-[1-(tetrahydro-2H-pyran-4-yl)-1H-pyrazolo[3,4-b]pyridin-5-yl]-7,8,9,10-tetrahydro-6H-pyrido[3′,2′:4,5]pyrrolo[1,2-a][1,4]diazepine-2-carboxamide]
1.6	CC1CCNC(=O)c2cc3ccc(C(=O)Nc4cnc5c(cnn5CC5CCOC5)c4)nc3n21 (centres unmarked) [Example 35, 10-methyl-6-oxo-N-[1-(tetrahydrofuran-3-ylmethyl)-1H-pyrazolo[3,4-b]pyridin-5-yl]-7,8,9,10-tetrahydro-6H-pyrido[3′,2′:4,5]pyrrolo[1,2-a][1,4]diazepine-2-carboxamide]
13	O=C(Nc1cnc2c(cnn2CC2CCOC2)c1)c1ccc2cc3n(c2n1)CCCNC3=O (centres unmarked) [Example 36, 6-oxo-N-[1-(tetrahydrofuran-3-ylmethyl)-1H-pyrazolo[3,4-b]pyridin-5-yl]-7,8,9,10-tetrahydro-6H-pyrido[3′,2′:4,5]pyrrolo[1,2-a][1,4]diazepine-2-carboxamide]
25	CC1(C)CNC(=O)c2cc3ccc(C(=O)Nc4cnc5c(cnn5CC5CCOC5)c4)nc3n2C1 (centres unmarked) [Example 37, 9,9-dimethyl-6-oxo-N-[1-(tetrahydrofuran-3-ylmethyl)-1H-pyrazolo[3,4-b]pyridin-5-yl]-7,8,9,10-tetrahydro-6H-pyrido[3′,2′:4,5]pyrrolo[1,2-a][1,4]diazepine-2-carboxamide]
3.8	Cc1ccnc(NC(=O)c2ccc3cc4n(c3n2)CCCNC4=O)c1 [Example 38, N-(4-methylpyridin-2-yl)-6-oxo-7,8,9,10-tetrahydro-6H-pyrido[3′,2′:4,5]pyrrolo[1,2-a][1,4]diazepine-2-carboxamide]
91	CC1(C)CNC(=O)c2cc3ccc(C(=O)Nc4cnc5ccccc5c4)nc3n2C1 [Example 39, 9,9-dimethyl-6-oxo-N-(quinolin-3-yl)-7,8,9,10-tetrahydro-6H-pyrido[3′,2′:4,5]pyrrolo[1,2-a][1,4]diazepine-2-carboxamide]
